Consider 13 compounds from PubChem BioAssay (NCI).

What all share (assay): NCI-60 cell line screen, 48 h
Experiment [1] relates to HL-60(TB) leukemia.
Experiment [2] has as its system HT29 colon.
The subject of experiment [3] is IGROV1 ovarian.
Experiment [4] deals with K-562 leukemia.
In experiment [5] the test system is KM12 colon.
The test system of experiment [6] is OVCAR-8 ovarian.
Experiment [7] relates to SF-268 CNS.
In experiment [8] the test system is SF-295 CNS.
The subject of experiment [9] is SN12C renal.
The subject of experiment [10] is UACC-62 melanoma.

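Assay format: 96-well plates, 48-hour exposure. Definition used: TGI = concentration required for complete inhibition of growth.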

Take `CN[C@@H]1[C@H](O)[C@H](NC)[C@H]2O[C@@]3(O)C(=O)C[C@@H](C)O[C@H]3O[C@@H]2[C@H]1O`: the TGI in experiment [1], in experiment [2], in experiment [3], in experiment [4], in experiment [5] and in [6] was over 100 µM throughout. Besides, the TGI in experiment [7], in experiment [8], in [9] and in experiment [10] was over 100 µM each time.

Turning to `Nc1nc(SCCC/C=C/B(O)O)nc2c1ncn2C1OC(CO)C(O)C1O` (stereo not given), the TGI in experiment [1], in [2], in [3], in experiment [4], in experiment [5] and in [6] was over 243 µM in each case. The TGI in experiment [7], in [8], in [9] and in experiment [10] was over 243 µM throughout.

For the compound `O=[N+]([O-])/C=C/c1cccc(F)c1`, the TGI in experiment [2] is 10.3 µM; in [3], over 100 µM; in [5], 10.3 µM; in [6] it was 32 µM; in experiment [7], 29.4 µM; in [8], 30.2 µM. The TGI in experiment [9] stood at 38.9 µM; in experiment [10], 22.5 µM.

For the compound `C=C(/C=C/C=C(/CCC=C(C)C)COC(C)=O)[C@@H]1CC[C@]2([C@H](CCCO)/C(=C(/C)C=O)CC[C@]2(C)O)[C@@H]1O`, the TGI was determined as 11.1 µM in experiment [1]; 28.4 µM in [2]; 36.2 µM in [3]; 30.2 µM in experiment [4]; 32.4 µM in experiment [5]; 52.3 µM in [6]. Also, the figures for the TGI in experiment [7], in experiment [8] and in [9] were 41.9 µM, 19.6 µM and 29.9 µM, respectively.

`C[n+]1ccccc1/C=C/c1ccc2c(c1)OCO2`: the TGI in experiment [1], in [2], in experiment [3], in experiment [4], in [5] and in experiment [6] was over 10 µM in each case. Moreover, the TGI in experiment [7], in experiment [8], in [9] and in experiment [10] was over 10 µM throughout.

For the compound `NC(=O)c1nnc2cc(F)c(F)cc2c1N`, the TGI in [1], in [2], in experiment [3], in experiment [4], in [5] and in experiment [6] was over 100 µM each time. Moreover, the TGI in experiment [7] is 49.9 µM; in experiment [8], 64.5 µM; in experiment [9], over 100 µM; in [10], over 100 µM.

As for `COc1cc2c(cc1OC)C(C1(O)CCCCC1)NCC2` (stereo not given), the TGI in experiment [1], in experiment [2], in [3], in experiment [4], in experiment [5] and in experiment [6] was over 100 µM each time. The TGI in experiment [7], in experiment [8], in [9] and in [10] was over 100 µM in each case.

Regarding `CC1(C)[C@@H]2C[C@H]1C(Cc1ccccc1C[C@H]1c3cc(-c4ccccn4)ncc3[C@H]3C[C@@H]1C3(C)C)c1cc(-c3ccccn3)ncc12` (stereo not given in full), the TGI in [1] is 0.65 µM; in [2], over 100 µM; in experiment [3], 26.2 µM; in experiment [4], over 100 µM; in experiment [5], 13.4 µM; in experiment [6] it was over 25.5 µM. The TGI in experiment [7] was over 36.2 µM; in experiment [8] it was over 55.1 µM; in experiment [9], over 100 µM; in experiment [10], 4.15 µM.

Regarding `Nc1nc(Cl)cc(NCCCCO)n1`, the TGI in [1], in experiment [2], in [3], in experiment [4], in experiment [5] and in experiment [6] was over 100 µM each time. Also, the TGI in experiment [7], in experiment [8], in experiment [9] and in experiment [10] was over 100 µM each time.

For the compound `CCCNCC(O)/C=C/[Si](C)(C)C` (stereo not given) (tested in a mixture with another compound), the TGI in [1], in [2], in experiment [3], in experiment [4], in experiment [5] and in experiment [6] was over 100 µM throughout. Further, the TGI in experiment [8], in [9] and in experiment [10] was over 100 µM in each case.

For the compound `Cc1ccccc1N=Nc1ccc(N=Nc2c(O)ccc3cc(S(=O)(=O)O)cc(S(=O)(=O)O)c23)c(C)c1`, the TGI in experiment [1], in [2], in [3], in experiment [4], in [5] and in [6] was over 100 µM each time. Moreover, the TGI in experiment [7], in experiment [8] and in experiment [10] was over 100 µM each time.

With `Cc1nnc2sc(-c3ccc(N)cc3)nn12`, the TGI in experiment [1], in experiment [2], in experiment [3], in experiment [4], in experiment [5] and in experiment [6] was over 100 µM each time. In addition, the TGI in experiment [7], in experiment [8], in [9] and in experiment [10] was over 100 µM throughout.

On to `Cc1c(Cl)c(S(N)(=O)=O)cc(S(N)(=O)=O)c1NC(=O)c1ccc(Cl)cc1`, for which the TGI in experiment [1], in [2], in [3], in [4], in experiment [5] and in experiment [6] was over 100 µM throughout. The TGI in experiment [7], in experiment [8], in [9] and in experiment [10] was over 100 µM in each case.
